Legend:
[1] = target: T1, GABAA2 receptors (α2, β3, γ2 receptor subunits transfected into Sf9 cells) (Homo sapiens, UniProt P18507+P47869); assay: GABAA2 Binding Method ([3H]-Flunitrazepam displacement); settings: [3H]-Flunitrazepam ~2 nM, α2β3γ2 Sf9 membranes, 1 hr at 4° C.
T1 construct: host or cells: Sf9 cells (membranes)
Description: In some embodiments, the binding test is directed to a subtype of GABAA receptors, such as GABAA1 receptors (i.e., those containing the α1 subunit), GABAA2 receptors (i.e., those containing the α2 subunit), GABAA3 receptors (i.e., those containing the α3 subunit) and GABAA5 receptors (i.e., those containing the α5 subunit).
[^3H]-Flunitrazepam (Cat #NET567): Prepare 10× stock=20 nM, [F} in assay=˜2 nM
1. […] Add 5 ul of 30 uM flumazenil to wells 12 D-E for 50% control wells.
5. Add 25 μl [^3H]-Flunitrazepam (Automation Program 6). Incubate for 1 hr at 4° C.
6. Collect membranes on a cell harvester onto GF/B filter plates (pre-wet with dH2O and wash 5×400 μl/well, with cold assay buffer. (First 3 washes are considered hot; last two are cold.)
Data is analyzed by calculating percent of control, IC50, and Ki in an XLfit template. The following formula is used in the templates: […]

GABAA receptor α1β2γ2 = target: T2, GABAA receptor α1β2γ2 (Homo sapiens, UniProt P14867+P18507); assay: Two-electrode voltage-clamp potentiation of GABA EC10 current in Xenopus oocytes, GABAA1; format: cell-based; settings: percentage potentiation of GABA EC10 current divided by that of diazepam
T2 construct: expressed in transfected cells; host or cells: Xenopus laevis oocytes injected with cRNA
T2 sequence (P14867 28-456): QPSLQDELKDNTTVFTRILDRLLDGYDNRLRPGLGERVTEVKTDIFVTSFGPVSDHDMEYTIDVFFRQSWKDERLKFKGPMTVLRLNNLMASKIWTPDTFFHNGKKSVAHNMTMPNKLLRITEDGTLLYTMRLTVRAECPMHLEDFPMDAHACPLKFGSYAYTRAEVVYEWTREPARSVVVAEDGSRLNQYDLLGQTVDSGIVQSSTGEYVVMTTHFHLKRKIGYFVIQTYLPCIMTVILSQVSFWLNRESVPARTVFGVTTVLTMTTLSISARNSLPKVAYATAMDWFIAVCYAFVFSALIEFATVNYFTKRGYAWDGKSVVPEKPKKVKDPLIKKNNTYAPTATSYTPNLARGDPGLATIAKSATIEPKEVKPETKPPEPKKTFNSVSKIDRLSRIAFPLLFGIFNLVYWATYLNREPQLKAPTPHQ
T2 sequence (P47870 25-512 partner limits assumed): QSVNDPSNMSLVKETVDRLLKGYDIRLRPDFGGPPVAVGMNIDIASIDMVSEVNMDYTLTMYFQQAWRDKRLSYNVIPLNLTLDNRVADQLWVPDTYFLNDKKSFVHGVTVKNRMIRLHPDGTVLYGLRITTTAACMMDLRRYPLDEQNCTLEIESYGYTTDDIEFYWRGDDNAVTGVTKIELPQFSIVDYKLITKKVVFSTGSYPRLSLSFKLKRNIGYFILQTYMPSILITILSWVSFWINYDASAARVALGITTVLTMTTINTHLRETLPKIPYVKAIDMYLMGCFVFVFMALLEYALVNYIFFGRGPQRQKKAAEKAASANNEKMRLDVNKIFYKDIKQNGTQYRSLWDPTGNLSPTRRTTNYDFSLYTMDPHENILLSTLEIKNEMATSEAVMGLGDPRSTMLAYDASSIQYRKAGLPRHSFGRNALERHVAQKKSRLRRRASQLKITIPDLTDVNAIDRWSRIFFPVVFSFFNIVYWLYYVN
T2 sequence (P18507 40-475): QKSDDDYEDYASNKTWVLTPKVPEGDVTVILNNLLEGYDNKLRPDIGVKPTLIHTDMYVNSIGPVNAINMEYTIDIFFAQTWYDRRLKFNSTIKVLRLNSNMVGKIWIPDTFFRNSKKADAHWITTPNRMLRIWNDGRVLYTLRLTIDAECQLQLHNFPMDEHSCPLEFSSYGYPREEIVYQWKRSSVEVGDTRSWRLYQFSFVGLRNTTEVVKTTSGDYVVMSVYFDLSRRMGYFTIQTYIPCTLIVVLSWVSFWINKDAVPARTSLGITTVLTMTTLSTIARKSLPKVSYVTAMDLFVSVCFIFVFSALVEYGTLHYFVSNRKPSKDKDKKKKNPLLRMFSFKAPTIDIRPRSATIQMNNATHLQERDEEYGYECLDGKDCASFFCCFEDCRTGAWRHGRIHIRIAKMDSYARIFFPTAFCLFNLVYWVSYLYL
Description: GABAA receptors were heterologously expressed in Xenopus oocytes by injecting cRNA corresponding to human α1, α2, α3, α5, β2, P3 and γ2 subunits of the GABAA receptor genes. The specific subunit combinations (subtypes) were as follows: α1β2γ2, α2β3γ2, α3β3γ2, and α5β3γ2. The EC10 of GABA is approximated for each cell. Stability of GABA-mediated (EC10) current is established. Modulatory effect of test compound is determined and compared across subtypes. […] Thus, the assay can characterize modulatory effects and determine subtype selectivity of test compounds on major subtypes of GABAA receptors.
Xenopus laevis frogs (Xenopus I, Kalamazoo, Mich.) were anesthetized using 0.15% tricaine. Surgically removed ovarian lobes were teased out in OR2 solution (82 NaCl, 2.5 KCl, 5 HEPES, 1.5 NaH2PO4, 1 MgCl2, 0.1 EDTA, in mM, pH 7.4). The oocytes were defolliculated by incubation in 25 mL OR2 containing 0.2% collagenase 1A (SIGMA) two times for about 60 minutes on a platform shaker and stored in Leibovitz's L-15 medium. Oocytes were injected the following day in 0.5× Leibovitz's L-15 medium containing […] gentamycin, 10 units/ml penicillin, and […] streptomycin.
Capped cRNAs from the linearized vectors containing human α1, β2 and γ2 subunits of the GABAA receptor genes were mixed in ratio of […]. Oocytes were injected with 25-50 nL of mixed RNA with an appx molar ratio for α1, β2, and γ2 as 1:1:10. Oocyte recordings were done 2-10 days after injection. The same methods apply to subtypes derived from α2β3γ2, α3β3γ2, and α5β3γ2, except for 1:1:1 ratio was used for α, β, and γ subunits.
All measurements were done in a medium containing ND-96 (96 NaCl, 2 KCl, 1.8 CaCl2.2H2O, 1 MgCl2.6H2O, 5 HEPES, in mM, pH 7.5). Two-electrode voltage-clamp recording was carried out using OpusXpress amplifier (Axon Instruments, Foster City, Calif.), which allows simultaneous recording from 8 oocytes. Oocytes were impaled with two electrodes of 1-2 MΩ tip resistance when filled with 3M KCl. Recordings were begun when membrane potential became stable at potentials negative to −50-−60 mV. Membrane potential was held at −60 mV. […] The concentration of GABA corresponded to the EC10 value calculated for each oocyte. The modulator pulses started 30 s before the GABA pulse so as to allow preincubation with the modulator. A set of 3 pulses with just GABA without modulator was given prior to the modulator-containing pulses to define the baseline GABA response. Two oocytes per each experiment were dedicated to observe the effect of diazepam on GABA response to ensure the presence of γ2 subunit in the GABAA pentameric complex, which imparts diazepam sensitivity to the complex.
Current amplitude (i) was measured from baseline to peak using Clampfit (Axon Inst., Foster City, Calif.). Potentiation was calculated as percent change from the baseline GABA current flux 100×(imod/icontrol)−1) where imod=current mediated by modulator+GABA and icontrol=current mediated by GABA alone. […] Similarly, a value of −50% potentiation means the presence of modulator caused a 50% decrease in the control current. Various other data shown here were fitted and plotted using GraphPad Prism (GraphPad Software, Inc. San Diego, Calif.). The percentage potentiation was converted to relative potentiation by dividing it with percentage potentiation value obtained from the same assay with diazepam as a control.

T1 sequence (P47869 29-451): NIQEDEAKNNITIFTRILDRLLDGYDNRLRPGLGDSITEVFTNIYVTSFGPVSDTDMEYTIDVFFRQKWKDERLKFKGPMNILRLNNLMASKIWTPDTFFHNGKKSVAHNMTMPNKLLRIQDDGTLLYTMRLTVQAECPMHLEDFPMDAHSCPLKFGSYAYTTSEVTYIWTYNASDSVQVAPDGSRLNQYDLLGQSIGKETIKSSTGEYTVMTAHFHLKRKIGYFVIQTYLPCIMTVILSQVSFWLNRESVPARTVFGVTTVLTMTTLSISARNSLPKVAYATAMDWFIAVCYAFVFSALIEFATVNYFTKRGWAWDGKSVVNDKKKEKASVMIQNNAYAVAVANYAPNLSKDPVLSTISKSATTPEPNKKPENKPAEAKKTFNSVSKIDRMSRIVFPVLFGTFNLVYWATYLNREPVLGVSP
T1 sequence (P28472 26-473 partner): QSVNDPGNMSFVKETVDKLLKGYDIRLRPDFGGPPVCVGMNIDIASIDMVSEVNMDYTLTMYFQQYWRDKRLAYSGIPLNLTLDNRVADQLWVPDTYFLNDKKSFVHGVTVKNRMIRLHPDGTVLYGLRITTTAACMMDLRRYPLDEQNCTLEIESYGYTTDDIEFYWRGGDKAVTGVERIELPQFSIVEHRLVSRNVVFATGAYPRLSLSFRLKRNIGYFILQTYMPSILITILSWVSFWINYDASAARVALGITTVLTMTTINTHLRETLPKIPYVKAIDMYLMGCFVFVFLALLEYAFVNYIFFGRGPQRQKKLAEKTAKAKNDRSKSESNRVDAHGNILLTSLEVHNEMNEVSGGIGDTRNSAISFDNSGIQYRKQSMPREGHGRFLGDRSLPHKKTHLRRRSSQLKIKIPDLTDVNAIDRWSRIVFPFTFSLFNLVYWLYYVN
T1 sequence (P18507 40-475): as the sequence (P18507 40-475) above

Row | SMILES | Ki [1] [nM] | Relative Potentiation for GABAA1 (GABAA receptor α1β2γ2)
1 | CCCCN1Cc2nc3c(-c4c(F)cccc4OC)cccc3c(N)c2C1=O [9-amino-2-butyl-5-(2-fluoro-6-methoxyphenyl)-2,3-dihydro-1H-pyrrolo[3,4-b]quinolin-1-one] | 4.62 | 0.25
2 | CCCN1Cc2nc3c(-c4c(F)cc(OC)cc4F)cccc3c(N)c2C1=O [9-amino-5-(2,6-difluoro-4-methoxyphenyl)-2-propyl-2,3-dihydro-1H-pyrrolo[3,4-b]quinolin-1-one] | 12.2 | 0.16
3 | COc1ccc(CN2Cc3nc4c(-c5ccc(OC)cc5OC)cccc4c(N)c3C2=O)cc1 [9-amino-5-(2,4-dimethoxyphenyl)-2-(4-methoxybenzyl)-2,3-dihydro-1H-pyrrolo[3,4-b]quinolin-1-one] | 32.1 | 0.25
4 | COc1ncc(-c2cccc3c(N)c4c(nc23)CN(Cc2ccc3c(c2)OCO3)C4=O)c(OC)n1 [9-amino-2-(benzo[d][1,3]dioxol-5-ylmethyl)-5-(2,4-dimethoxypyrimidin-5-yl)-2,3-dihydro-1H-pyrrolo[3,4-b]quinolin-1-one] | 30.2 | 0.4
5 | CCCN1Cc2nc3c(-c4cnc(OC)c(C)c4)cccc3c(N)c2C1=O [9-amino-5-(6-methoxy-5-methylpyridin-3-yl)-2-propyl-2,3-dihydro-1H-pyrrolo[3,4-b]quinolin-1-one] | 36.5 | 0.32
6 | COc1ccc(OC)c(-c2cccc3c(N)c4c(nc23)CN(Cc2ccc3c(c2)OCO3)C4=O)c1 [9-amino-2-(benzo[d][1,3]dioxol-5-ylmethyl)-5-(2,5-dimethoxyphenyl)-2,3-dihydro-1H-pyrrolo[3,4-b]quinolin-1-one] | 60.6 | 0.33
7 | COc1ccc(CN2Cc3nc4c(-c5cc(F)cc(F)c5)cccc4c(N)c3C2=O)cc1OC [9-amino-5-(3,5-difluorophenyl)-2-(3,4-dimethoxybenzyl)-2,3-dihydro-1H-pyrrolo[3,4-b]quinolin-1-one] | 15.3 | 0.24
8 | COc1ncccc1-c1cccc2c(N)c3c(nc12)CN(Cc1ccc2c(c1)OCO2)C3=O [9-amino-2-(benzo[d][1,3]dioxol-5-ylmethyl)-5-(2-methoxypyridin-3-yl)-2,3-dihydro-1H-pyrrolo[3,4-b]quinolin-1-one] | 5.78 | 0.24
9 | COc1ccc(CN2Cc3nc4c(-c5cncc(OC)c5)cccc4c(N)c3C2=O)cc1 [9-amino-2-(4-methoxybenzyl)-5-(5-methoxypyridin-3-yl)-2,3-dihydro-1H-pyrrolo[3,4-b]quinolin-1-one] | 6.09 | 0.22
10 | COc1ccc(-c2cccc3c(N)c4c(nc23)CN(C2CC2)C4=O)c(C(F)(F)F)c1 [9-amino-2-cyclopropyl-5-(4-methoxy-2-(trifluoromethyl)phenyl)-2,3-dihydro-1H-pyrrolo[3,4-b]quinolin-1-one] | 31.9 | 0.5
11 | CCCN1Cc2nc3c(-c4cc(F)cnc4Cl)cccc3c(N)c2C1=O [9-amino-5-(2-chloro-5-fluoropyridin-3-yl)-2-propyl-2,3-dihydro-1H-pyrrolo[3,4-b]quinolin-1-one] | 16.3 | 0.38
12 | COc1ccc(CN2Cc3nc4c(-c5cccc(OC)c5F)cccc4c(N)c3C2=O)cc1 [9-amino-5-(2-fluoro-3-methoxyphenyl)-2-(4-methoxybenzyl)-2,3-dihydro-1H-pyrrolo[3,4-b]quinolin-1-one] | 8.03 | 0.36
13 | CCCN1Cc2nc3c(-c4ccc(C)cc4)cccc3c(N)c2C1=O [9-amino-2-propyl-5-(4-methylphenyl)-2,3-dihydro-1H-pyrrolo[3,4-b]quinolin-1-one] | 80.7 | 0.37
14 | CCCN1Cc2nc3c(-c4ccoc4)cccc3c(N)c2C1=O [9-amino-5-(furan-3-yl)-2-propyl-2,3-dihydro-1H-pyrrolo[3,4-b]quinolin-1-one] | 38.2 | 0.13
15 | Cc1ccc(-c2cccc3c(N)c4c(nc23)CN(C2CC2)C4=O)c(Cl)n1 [9-amino-5-(2-chloro-6-methylpyridin-3-yl)-2-cyclopropyl-2,3-dihydro-1H-pyrrolo[3,4-b]quinolin-1-one] | 7.87 | 0.4
16 | Nc1c2c(nc3c(-c4ccccc4C(F)(F)F)cccc13)CN(C1CC1)C2=O [9-amino-2-cyclopropyl-5-(2-(trifluoromethyl)phenyl)-2,3-dihydro-1H-pyrrolo[3,4-b]quinolin-1-one] | 22.7 | 0.48
17 | CCN1Cc2nc3c(-c4cc(C)ccc4OC)cccc3c(N)c2C1=O [9-amino-2-ethyl-5-(2-methoxy-5-methylphenyl)-2,3-dihydro-1H-pyrrolo[3,4-b]quinolin-1-one] | 25.6 | 0.2
18 | CCCN1Cc2nc3c(-c4cc(Cl)cnc4OC)cccc3c(N)c2C1=O [9-amino-5-(5-chloro-2-methoxypyridin-3-yl)-2-propyl-2,3-dihydro-1H-pyrrolo[3,4-b]quinolin-1-one] | 21.5 | 0.49
19 | CCCN1Cc2nc3c(-c4ccc(F)cc4F)cccc3c(N)c2C1=O [9-amino-5-(2,4-difluorophenyl)-2-propyl-2,3-dihydro-1H-pyrrolo[3,4-b]quinolin-1-one] | 14.9 | 0.39
20 | Cc1nc(Cl)ccc1-c1cccc2c(N)c3c(nc12)CN(C1CC1)C3=O [9-amino-5-(6-chloro-2-methylpyridin-3-yl)-2-cyclopropyl-2,3-dihydro-1H-pyrrolo[3,4-b]quinolin-1-one] | 28 | 0.16
21 | CCCN1Cc2nc3c(-c4ccc(OC)cc4C(F)(F)F)cccc3c(N)c2C1=O [9-amino-5-(4-methoxy-2-(trifluoromethyl)phenyl)-2-propyl-2,3-dihydro-1H-pyrrolo[3,4-b]quinolin-1-one] | 10.4 | 0.25
22 | CCCN1Cc2nc3c(-c4cc(C)ccc4F)cccc3c(N)c2C1=O [9-amino-5-(2-fluoro-5-methylphenyl)-2-propyl-2,3-dihydro-1H-pyrrolo[3,4-b]quinolin-1-one] | 6.77 | 0.27
23 | CCCN1Cc2nc3c(-c4cc(Br)cnc4OC)cccc3c(N)c2C1=O [9-amino-5-(5-bromo-2-methoxypyridin-3-yl)-2-propyl-2,3-dihydro-1H-pyrrolo[3,4-b]quinolin-1-one] | 10.6 | 0.53
24 | COc1ccc(C)cc1-c1cccc2c(N)c3c(nc12)CN(C1CCC1)C3=O [9-amino-2-cyclobutyl-5-(2-methoxy-5-methylphenyl)-2,3-dihydro-1H-pyrrolo[3,4-b]quinolin-1-one] | 4.07 | 0.19

From patent US20080318943A1, “Compounds and Uses Thereof - 848” (ASTRAZENECA AB, priority 2007, published 2008)
